Key:
Type in all cases: cell-based, human
MMP-3 [1] = test: MMP-3 expression (ELISA) in 3D cultured SW-1353 cells stimulated with IL-β; conditions: 3D SW-1353, 10 mM of inhibitor together with 0, 10, 100 and 1000 μg/ml DNA fragment mixture, IL-β 10 ng/ml
Protocol: (§1) SW-1353 cells were grown on a 3D collagen […] with or without a DNA fragment mixture (polydeoxyribonucleotides (PDRN), 450 kDa, sterilized, BR Pharm Co, Wonju, South Korea). SW-1353 cells were harvested from the 2D culture, and the cells in the medium were counted. Next, the cells were spun down and cooled. For use of the DNA fragment mixture as an extracellular matrix (ECM) additive to 3D chondrocytes, 10 mg/ml of the DNA fragment mixture was dissolved in 10× PBS and diluted with 10× PBS at concentrations of 0 μg/ml, 10 μg/ml, 100 μg/ml and 1000 μg/ml. 10× PBS, containing different concentrations of the DNA fragment mixture, and rat tail collagen I solution diluted with DMEM at a concentration of 4 mg/ml, were mixed at a ratio of 1:10, and the mixture was adjusted to a pH of 7.0-7.4 with NaOH. Thereafter, the cells were carefully shaken to avoid air bubbles from entering the collagen solution. 2 μl of the solution was added to each well to construct a 3D gel-cell. The gel was kept in an incubator (37° C. and 5% CO2) for 45 minutes, and the 3D gel-cell matrix was exposed to serum-free medium for 48 hours. For drug screening from the DNA fragment mixture, the DNA fragment mixture was treated with serum-free medium after the SW-1353 cells were sufficiently grown.
(§2) SW-1353 cells were treated with 10-1000 μg/ml of the DNA fragment mixture and 0.1-10 mM of each of glucosamine (GLN), N-acetyl-D-glucosamine (NAG), alliin, sodium butyrate (SB) and chondroitin sulfate (CS) for 24 hours, and stimulated with 10 ng/ml of IL-β for analysis of MMP expression therein.
(§3) To evaluate MMP expression, IL-β was dissolved in serum-free DMEM medium and used at a final concentration of 10 ng/ml. The cells were cultured at 37° C. under 5% CO2. The cell culture supernatant was collected, centrifuged, and then stored at −80° C. until use in the experiment. The amounts of MMP-3 and MMP-13 in the culture supernatant were measured using commercially available ELISA (enzyme-linked immunosorbent assays) according to the manufacturer's protocol.
(§4) During 3D cell culture, chondrocytes were cultured in 10% serum-containing medium or serum-free medium, and the cultured chondrocytes were stimulated with IL-β (10 ng/ml).
(§5) In addition, after 24 hours of treatment with the DNA fragment mixture and IL-β in serum-free medium, two markers (MMP-3 and MMP-13) which are frequently involved in degenerative arthritis disease were analyzed.

MMP-13 [2] = test: MMP-13 expression (ELISA) in 3D cultured SW-1353 cells stimulated with IL-β; conditions: 3D SW-1353, 10 mM of inhibitor together with 0, 10, 100 and 1000 μl/ml DNA fragment mixture, IL-β 10 ng/ml
Protocol: as §1, §2, §3, §4, §5

MMP-13 [3] = test: MMP-13 expression (ELISA of culture supernatant) in 2D cultured SW-1353 cells stimulated with IL-β; conditions: 2D SW-1353, 10 mM of inhibitor together with 0, 10, 100 and 1000 μl/ml DNA fragment mixture, IL-β 10 ng/ml
Protocol: (§6) The human chondrosarcoma cell line SW-1353 (HTB-94, ATCC, Mansassas, Va., USA) was cultured in DMEM (Dulbecco Modified Eagle's medium) supplemented with 10% FBS (fetal bovine serum) and 1% antibiotic-antifungal agent. An incubator for cell culture was kept at 37° C. under 5% CO2. For cell culture, cells were seeded into a culture flask at a density of 1.2×10^4 cells/cm^2. When a confluence of 80-90% was reached, the cells were trypsinized. The cells were subcultured 9 times before use in the experiment.
as §2, §3
(§7) Cells of test groups were cultured with 10 ng/ml of IL-β under the same conditions as those of the control group.

MMP-3 [4] = test: MMP-3 expression (ELISA of culture supernatant) in 2D cultured SW-1353 cells stimulated with IL-β; conditions: 2D SW-1353, 10 mM of inhibitor together with 0, 10, 100 and 1000 μg/ml DNA fragment mixture, IL-β 10 ng/ml
Protocol: as §6, §2, §3, §7

chondroitin sulfate
decreased: expression level of MMP-3 protein (MMP-3 [1]) | expression level of MMP-13 protein (MMP-13 [2]) | expression level of MMP-13 protein (MMP-13 [3]) | expression level of MMP-3 protein (MMP-3 [4])

alliin
decreased: expression level of MMP-3 protein (MMP-3 [1]) | expression level of MMP-13 protein (MMP-13 [2]) | expression level of MMP-13 protein (MMP-13 [3]) | expression level of MMP-3 protein (MMP-3 [4])

CC(=O)N[C@H]1C(O)O[C@H](CO)[C@@H](O)[C@@H]1O (stereo partly drawn) [N-acetyl-D-glucosamine]
decreased: expression level of MMP-3 protein (MMP-3 [1]) | expression level of MMP-13 protein (MMP-13 [2]) | expression level of MMP-13 protein (MMP-13 [3]) | expression level of MMP-3 protein (MMP-3 [4])

CCCC(=O)[O-].[Na+] [sodium butyrate]
decreased: expression level of MMP-3 protein (MMP-3 [1]) | expression level of MMP-13 protein (MMP-13 [2]) | expression level of MMP-13 protein (MMP-13 [3]) | expression level of MMP-3 protein (MMP-3 [4])

N[C@H]1C(O)O[C@H](CO)[C@@H](O)[C@@H]1O (some centres unmarked) [glucosamine]
decreased: expression level of MMP-3 protein (MMP-3 [1]) | expression level of MMP-13 protein (MMP-13 [2]) | expression level of MMP-13 protein (MMP-13 [3]) | expression level of MMP-3 protein (MMP-3 [4])

— US20190374566A1, “COMPOSITION FOR PREVENTING AND TREATING ARTHRITIS, INCLUDING DNA FRAGMENT MIXTURE AND MATRIX METALLOPROTEINASE PRODUCTION INHIBITOR” (BR PHARM CO., LTD., priority 2018, published 2019)
